Tested on: R-28 and ARPE-19 cell line
Conditions: rat (R-28), human (ARPE-19), 48 h
Protocol: The biosafety of DONBs and excipients used in the formulation was evaluated on retinal precursor cells R-28 and retinal pigment epithelial cells (ARPE-19). The suspensions of the following cell line (100 μL, −60,000 cells/mL) were seeded into each well of a 96-well plate and cultured overnight. The cells were cultured for 24 h in the dark.
Excipient toxicity studies on ARPE-19 and R28 cell line. Cell viability was conducted with ARPE-19 and R28 cell lines, in response to treatment with nanobubble excipients, using the [3-(4, 5-dimethylthiazol-2-yl)-2, 5-diphenyl tetrazolium bromide](MTT) assay. The MTT reagent (Cat no. M6494, Thermo Fisher Scientific) was prepared by dissolving 5 mg of MTT per 1 ml of phosphate-buffered saline (Cat no. 21-040-CV, Corning), filter sterilized using a 0.22 μm filter, and stored in dark at 4° C. Yellow MTT is reduced to purple formazan in the mitochondria of living cells. Cells were grown to 80-90% confluence in a T-25 flask, dissociated using trypsin, and seeded into a 96-well plate at a density of 10000 cells per well. […] The absorbance was measured at 590 nm with a reference filter of 620 nm.

OC[C@H]1O[C@H](O[C@H]2O[C@H](CO)[C@@H](O)[C@H](O)[C@H]2O)[C@H](O)[C@@H](O)[C@@H]1O [Trehalose, D-(+)-Trehalose dihydrate]
excipient concentration producing some toxic effect on cell viability: 0.6 to 0.7 mg
